PubChem BioAssay (NCI)
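Growth conditions: 96-well plates. Treatment: test compound, 48 hours, 5 concentrations. Analysis: linear interpolation between bracketing concentrations; unreached endpoints set to highest concentration. GI50 marks 50% less growth. TGI: concentration producing complete growth inhibition.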

How the values were obtained:
Assay in all cases: inhibition of tumour cell growth, NCI panel, 48 h
[1] = tested on: MDA-MB-231 breast
[2] = tested on: MALME-3M melanoma
[3] = tested on: TK-10 renal
[4] = tested on: HCC-2998 colon
[5] = tested on: COLO 205 colon
[6] = tested on: SW-620 colon
[7] = tested on: HT29 colon
[8] = tested on: UACC-257 melanoma
[9] = tested on: PC-3 prostate
[10] = tested on: SR leukemia
[11] = tested on: T-47D breast
[12] = tested on: ACHN renal
[13] = tested on: OVCAR-3 ovarian
[14] = tested on: BT-549 breast
[15] = tested on: A498 renal
[16] = tested on: K-562 leukemia
[17] = tested on: CCRF-CEM leukemia
[18] = tested on: SNB-19 CNS
[19] = tested on: SK-MEL-28 melanoma
[20] = tested on: NCI-H522 lung
[21] = tested on: SNB-75 CNS
[22] = tested on: OVCAR-8 ovarian
[23] = tested on: NCI-H460 lung
[24] = tested on: DU-145 prostate
[25] = tested on: SK-OV-3 ovarian
[26] = tested on: IGROV1 ovarian
[27] = tested on: U251 CNS
[28] = tested on: HOP-62 NSCLC
[29] = tested on: HS 578T breast
[30] = tested on: A549 NSCLC
[31] = tested on: MCF7 breast
[32] = tested on: EKVX NSCLC
[33] = tested on: NCI/ADR-RES ovarian
[34] = tested on: OVCAR-5 ovarian
[35] = tested on: SK-MEL-2 melanoma
[36] = tested on: SF-268 CNS
[37] = tested on: HCT-116 colon
[38] = tested on: NCI-H226 lung
[39] = tested on: SN12C renal
[40] = tested on: SF-539 CNS
[41] = tested on: 786-0 renal
[42] = tested on: MDA-MB-435
[43] = tested on: UACC-62 melanoma
[44] = tested on: HOP-92 NSCLC
[45] = tested on: RPMI-8226 leukemia
[46] = tested on: OVCAR-4 ovarian
[47] = tested on: SF-295 CNS
[48] = tested on: CAKI-1 renal
[49] = tested on: KM12 colon
[50] = tested on: SK-MEL-5 melanoma
[51] = tested on: HCT-15 colon
[52] = tested on: MOLT-4 leukemia
[53] = tested on: HL-60(TB) leukemia

Fc1ccc(-c2cc3nc(C(Cl)Cl)nc(-c4ccc(Cl)cc4)n3n2)cc1
GI50 [1]: 4.08 µM
TGI [1]: > 100 µM
GI50 [2]: > 100 µM
TGI [2]: > 100 µM
GI50 [3]: 7.6 µM
TGI [3]: > 100 µM
GI50 [4]: 1.54 µM
TGI [4]: 3.14 µM
GI50 [5]: 1.84 µM
TGI [5]: 4.05 µM
GI50 [6]: 2.91 µM
TGI [6]: > 100 µM
GI50 [7]: 1.66 µM
TGI [7]: 5.36 µM
GI50 [8]: > 100 µM
TGI [8]: > 100 µM
GI50 [9]: 3.96 µM
TGI [9]: > 100 µM
GI50 [10]: 3.01 µM
TGI [10]: > 100 µM
GI50 [11]: 3.91 µM
TGI [11]: > 100 µM
GI50 [12]: 1.6 µM
TGI [12]: 4.03 µM
GI50 [13]: 2.02 µM
TGI [13]: 4.5 µM
GI50 [14]: 94.7 µM
TGI [14]: > 100 µM
GI50 [15]: 4.95 µM
TGI [15]: 53.1 µM
GI50 [16]: 4.39 µM
TGI [16]: > 100 µM
GI50 [17]: > 100 µM
TGI [17]: > 100 µM
GI50 [18]: 2.96 µM
TGI [18]: > 100 µM
GI50 [19]: 8.28 µM
TGI [19]: > 100 µM
GI50 [20]: 3.72 µM
TGI [20]: > 100 µM
GI50 [21]: > 100 µM
TGI [21]: > 100 µM
GI50 [22]: 4.03 µM
TGI [22]: > 100 µM
GI50 [23]: 1.76 µM
TGI [23]: 4.69 µM
GI50 [24]: 1.91 µM
TGI [24]: 5.84 µM
GI50 [25]: 3.23 µM
TGI [25]: > 100 µM
GI50 [26]: > 100 µM
TGI [26]: > 100 µM
GI50 [27]: 1.79 µM
TGI [27]: 4.36 µM
GI50 [28]: 2.53 µM
TGI [28]: > 100 µM
GI50 [29]: > 100 µM
TGI [29]: > 100 µM
GI50 [30]: 1.8 µM
TGI [30]: 4.53 µM
GI50 [31]: 2.45 µM
TGI [31]: > 100 µM
GI50 [32]: 2.94 µM
TGI [32]: 14.1 µM
GI50 [33]: 3.32 µM
TGI [33]: > 100 µM
GI50 [34]: 3.92 µM
TGI [34]: > 100 µM
GI50 [35]: > 100 µM
TGI [35]: > 100 µM
GI50 [36]: 5.09 µM
TGI [36]: > 100 µM
GI50 [37]: 3.3 µM
TGI [37]: > 100 µM
GI50 [38]: > 100 µM
TGI [38]: > 100 µM
GI50 [39]: > 100 µM
TGI [39]: > 100 µM
GI50 [40]: 11.3 µM
TGI [40]: > 100 µM
GI50 [41]: 23.5 µM
TGI [41]: > 100 µM
GI50 [42]: 6.6 µM
TGI [42]: > 100 µM
GI50 [43]: > 100 µM
TGI [43]: > 100 µM
GI50 [44]: 4.66 µM
TGI [44]: > 100 µM
GI50 [45]: 4.55 µM
TGI [45]: > 100 µM
GI50 [46]: 3.11 µM
TGI [46]: > 100 µM
GI50 [47]: 3.04 µM
TGI [47]: 9.71 µM
GI50 [48]: 2.96 µM
TGI [48]: > 100 µM
GI50 [49]: 3.01 µM
TGI [49]: > 100 µM
GI50 [50]: > 100 µM
TGI [50]: > 100 µM
GI50 [51]: 2.5 µM
TGI [51]: > 100 µM
GI50 [52]: 4.25 µM
TGI [52]: > 100 µM
GI50 [53]: 2 µM
TGI [53]: > 100 µM
